Earlier results, collected in patent publication US9301957B2, “Immediate release 4-methyl-3-4[[4-(3-pyridinyl)-2-pyrimidinyl]amino]-N-[5-(4-methyl-1H-imidazol-1-YL)-3-(trifluoromethyl)phenyl] benzamide formulation” (Novartis AG, priority 2011, dated 2016).

Key:
[1] = nilotinib and its salts
[2] = unit dosage given shortly after food, compared to a fasted state

## Cc1cn(-c2cc(NC(=O)c3ccc(C)c(Nc4nccc(-c5cccnc5)n4)c3)cc(C(F)(F)F)c2)cn1 [nilotinib, 4-Methyl-3-[[4-(3-pyridinyl)-2-pyrimidinyl]amino]-N-[5-(4-methyl-1H-imidazol-1-yl)-3-(trifluoromethyl)phenyl]benzamide]
[1]
  water solubility: poorly water soluble
[2]
  systemic exposure, as reflected by AUC and Cmax: increases markedly
